The experiment deals with R232-STING (Homo sapiens, UniProt Q86WV6, H232R). The experiment in a line: biochemical.
R232-STING, sequence (Q86WV6 155-341 H232R): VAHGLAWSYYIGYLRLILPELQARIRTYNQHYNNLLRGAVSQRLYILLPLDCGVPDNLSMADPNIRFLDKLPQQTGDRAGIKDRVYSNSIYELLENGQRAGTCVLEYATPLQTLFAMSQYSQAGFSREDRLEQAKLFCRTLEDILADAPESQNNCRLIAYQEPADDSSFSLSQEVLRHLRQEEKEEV
Regarding `CCn1nc(C)cc1-c1nnc(-c2cc(C(N)=O)cc3c2cnn3[C@H]2C[C@H](NC)C2)[nH]1` [ZZZ066, 4-[5-(1-ethyl-3-methyl-1H-pyrazol-5-yl)-4H-1,2,4-triazol-3-yl]-1-[(1r,3r)-3-(methylamino)cyclobutyl]-1H-indazole-6-carboxamide], the Ki was over 990 nM.

Regarding `CCn1nc(C)cc1-c1nnc(-c2cc(C(N)=O)cc3c2cnn3C2CCNCC2)[nH]1` [ZZZ067, 4-[5-(1-ethyl-3-methyl-1H-pyrazol-5-yl)-4H-1,2,4-triazol-3-yl]-1-(piperidin-4-yl)-1H-indazole-6-carboxamide], the Ki came to 536 nM.

In turn, `CCn1nc(C)cc1-c1nnc(-c2cc(C(N)=O)cc3c2cnn3Cc2noc3c2CNCC3)[nH]1` [ZZZ068, 4-[5-(1-ethyl-3-methyl-1H-pyrazol-5-yl)-4H-1,2,4-triazol-3-yl]-1-[(4,5,6,7-tetrahydro[1,2]oxazolo[4,5-c]pyridin-3-yl)methyl]-1H-indazole-6-carboxamide] registered a Ki of over 990 nM.

As for `CCn1nc(C)cc1-c1nnc(-c2cc(C(N)=O)cc3c2cnn3CC2CC3(CCNC3)C2)[nH]1` (stereo not shown) [ZZZ070, 1-[(6-azaspiro[3.4]octan-2-yl)methyl]-4-[5-(1-ethyl-3-methyl-1H-pyrazol-5-yl)-4H-1,2,4-triazol-3-yl]-1H-indazole-6-carboxamide], the Ki is over 990 nM.

Regarding `CCn1nc(C)cc1-c1nnc(-c2cc(C(N)=O)cc3c2cnn3CCCNC2CCCCC2)[nH]1` [ZZZ071, 1-[3-(cyclohexylamino)propyl]-4-[5-(1-ethyl-3-methyl-1H-pyrazol-5-yl)-4H-1,2,4-triazol-3-yl]-1H-indazole-6-carboxamide], the Ki was over 990 nM.

In turn, `CCn1nc(C)cc1-c1nnc(-c2cc(C(N)=O)cc3c2cnn3CCC2CCNCC2)[nH]1` [ZZZ073, 4-[5-(1-ethyl-3-methyl-1H-pyrazol-5-yl)-4H-1,2,4-triazol-3-yl]-1-[2-(piperidin-4-yl)ethyl]-1H-indazole-6-carboxamide] showed a Ki of 650 nM.

Molecule `CCn1nc(C)cc1-c1nnc(-c2cc(C(N)=O)cc3c2cnn3CC2CC3CNCC3C2)[nH]1` (stereo not shown) [ZZZ074, 4-[5-(1-ethyl-3-methyl-1H-pyrazol-5-yl)-4H-1,2,4-triazol-3-yl]-1-[(octahydrocyclopenta[c]pyrrol-5-yl)methyl]-1H-indazole-6-carboxamide] gave a Ki of over 990 nM.

`CCn1nc(C)cc1-c1nnc(-c2cc(C(N)=O)cc3c2cnn3[C@H]2CC[C@@H](NC)CC2)[nH]1` [ZZZ075, 4-[5-(1-ethyl-3-methyl-1H-pyrazol-5-yl)-4H-1,2,4-triazol-3-yl]-1-[(1s,4s)-4-(methylamino)cyclohexyl]-1H-indazole-6-carboxamide]: the Ki turned out to be 961 nM.

The molecule `CCn1nc(C)cc1-c1nnc(-c2cc(C(N)=O)cc3c2cnn3C[C@@H](C)C2CCNCC2)[nH]1` [ZZZ076, 4-[5-(1-ethyl-3-methyl-1H-pyrazol-5-yl)-4H-1,2,4-triazol-3-yl]-1-[(2S)-2-(piperidin-4-yl)propyl]-1H-indazole-6-carboxamide] yielded a Ki of 976 nM.

As for `CCn1nc(C)cc1-c1nnc(-c2cc(C(N)=O)cc3c2cnn3CCCC2CCNCC2)[nH]1` [ZZZ077, 4-[5-(1-ethyl-3-methyl-1H-pyrazol-5-yl)-4H-1,2,4-triazol-3-yl]-1-[3-(piperidin-4-yl)propyl]-1H-indazole-6-carboxamide], the Ki is over 990 nM.

With `CCn1nc(C)cc1-c1nnc(-c2cc(C(N)=O)cc3c2cnn3C[C@H](C)C2CCNCC2)[nH]1` [ZZZ078, 4-[5-(1-ethyl-3-methyl-1H-pyrazol-5-yl)-4H-1,2,4-triazol-3-yl]-1-[(2R)-2-(piperidin-4-yl)propyl]-1H-indazole-6-carboxamide], the affinity, expressed as Ki, was 641 nM.

The molecule `CCn1nc(C)cc1-c1nnc(-c2cc(C(N)=O)cc3c2cnn3CCCC2CCCNC2)[nH]1` (stereo not shown) [ZZZ079, 4-[5-(1-ethyl-3-methyl-1H-pyrazol-5-yl)-4H-1,2,4-triazol-3-yl]-1-[3-(piperidin-3-yl)propyl]-1H-indazole-6-carboxamide] yielded a Ki of 785 nM.

As for `CCn1nc(C)cc1-c1nnc(-c2cc(C(N)=O)cc3c2cnn3CC2CC3(CNC3)C2)[nH]1` [ZZZ080, 1-[(2-azaspiro[3.3]heptan-6-yl)methyl]-4-[5-(1-ethyl-3-methyl-1H-pyrazol-5-yl)-4H-1,2,4-triazol-3-yl]-1H-indazole-6-carboxamide], the inhibitory constant (Ki) was over 990 nM.

In the case of `CCn1nc(C)cc1-c1nnc(-c2cc(C(N)=O)cc3c2cnn3[C@H]2C[C@@H](NC)C2)[nH]1` [ZZZ081, 4-[5-(1-ethyl-3-methyl-1H-pyrazol-5-yl)-4H-1,2,4-triazol-3-yl]-1-[(1s,3s)-3-(methylamino)cyclobutyl]-1H-indazole-6-carboxamide], the Ki was over 990 nM.

As to `CCn1nc(CO)cc1-c1nc(-c2nc(C(N)=O)cc3[nH]ncc23)n(C)n1` [ZZZ082, 4-{3-[1-ethyl-3-(hydroxymethyl)-1H-pyrazol-5-yl]-1-methyl-1H-1,2,4-triazol-5-yl}-1H-pyrazolo[4,3-c]pyridine-6-carboxamide], the Ki stood at 501 nM.

On to `CCn1nc(C(=O)O)cc1-c1nc(-c2nc(C(N)=O)cc3c2cnn3C)n(C)n1` [ZZZ083, 5-[5-(6-carbamoyl-1-methyl-1H-pyrazolo[4,3-c]pyridin-4-yl)-1-methyl-1H-1,2,4-triazol-3-yl]-1-ethyl-1H-pyrazole-3-carboxylic acid], for which the Ki is over 270 nM.

Regarding `CCn1nc(C)c(O)c1-c1nc(-c2nc(C(N)=O)cc3[nH]ncc23)n(C)n1` [ZZZ084, 4-[3-(1-ethyl-4-hydroxy-3-methyl-1H-pyrazol-5-yl)-1-methyl-1H-1,2,4-triazol-5-yl]-1H-pyrazolo[4,3-c] pyridine-6-carboxamide], the Ki is over 90.1 nM.

In turn, `Cn1ncc2c(-c3nc(-c4cc(C(F)(F)F)nn4CCC(=O)O)n[nH]3)cc(C(N)=O)cc21` [ZZZ085, 3-{5-[5-(6-carbamoyl-1-methyl-1H-indazol-4-yl)-1H-1,2,4-triazol-3-yl]-3-(trifluoromethyl)-1H-pyrazol-1-yl}propanoic acid] showed a Ki of 44.2 nM.

`CCn1nc(C)c(F)c1-c1nnc(-c2cc(C(N)=O)cn3c(CN)ncc23)[nH]1` [ZZZ086, 3-(aminomethyl)-8-[5-(1-ethyl-4-fluoro-3-methyl-1H-pyrazol-5-yl)-4H-1,2,4-triazol-3-yl]imidazo[1,5-c]pyridine-6-carboxamide] came in with a Ki of over 990 nM.

`CCn1nc(C)c(F)c1-c1nc(-c2nc(C(N)=O)cc3c2cnn3CCN2C[C@@H](C)O[C@@H](C)C2)n(C)n1` [ZZZ087, 1-{2-[(2R,6S)-2,6-dimethylmorpholin-4-yl]ethyl}-4-[3-(1-ethyl-4-fluoro-3-methyl-1H-pyrazol-5-yl)-1-methyl-1H-1,2,4-triazol-5-yl]-1H-pyrazolo[4,3-c]pyridine-6-carboxamide] returned a Ki of over 990 nM.

In turn, `CCn1nc(C)cc1-c1n[nH]c(-c2cc(C(N)=O)cc3c2cnn3CCN2CCO[C@@H](C)[C@H]2C)n1` [ZZZ088, 1-{2-[(2S,3R)-2,3-dimethylmorpholin-4-yl]ethyl}-4-[3-(1-ethyl-3-methyl-1H-pyrazol-5-yl)-1H-1,2,4-triazol-5-yl]-1H-indazole-6-carboxamide] registered an inhibition constant Ki of over 990 nM.

In the case of `CCn1nc(C)cc1-c1n[nH]c(-c2cc(C(N)=O)cc3c2cnn3CCN2C3COCC2C3)n1` [ZZZ090, 4-[3-(1-ethyl-3-methyl-1H-pyrazol-5-yl)-1H-1,2,4-triazol-5-yl]-1-[2-(3-oxa-6-azabicyclo[3.1.1]heptan-6-yl)ethyl]-1H-indazole-6-carboxamide], the Ki was over 990 nM.

The values are drawn from patent US12297190B2, “Modulators of STING (stimulator of interferon genes)” (PFIZER INC., priority 2019, dated 2025).
